One assay concerns the target human Nav1.7 (Homo sapiens, UniProt Q15858). The assay can be described thus: cell-based. In kind it is cell-based.
The next assay deals with Nav1.2 (rBIIa). In kind it is cell-based, rat.

Where a SMILES comes first, the peptide text is derived from it. Bridges are numbered along the chain shown (N, C = ends). [ ]: non-standard residue; d: D form. NMeL = CN[C@@H](CC(C)C)C(=O)O; αMeL = CC(C)C[C@](C)(N)C(=O)O

Sequence of human Nav1.7 (Q15858 other isoform, or with tags, fused parts or gaps): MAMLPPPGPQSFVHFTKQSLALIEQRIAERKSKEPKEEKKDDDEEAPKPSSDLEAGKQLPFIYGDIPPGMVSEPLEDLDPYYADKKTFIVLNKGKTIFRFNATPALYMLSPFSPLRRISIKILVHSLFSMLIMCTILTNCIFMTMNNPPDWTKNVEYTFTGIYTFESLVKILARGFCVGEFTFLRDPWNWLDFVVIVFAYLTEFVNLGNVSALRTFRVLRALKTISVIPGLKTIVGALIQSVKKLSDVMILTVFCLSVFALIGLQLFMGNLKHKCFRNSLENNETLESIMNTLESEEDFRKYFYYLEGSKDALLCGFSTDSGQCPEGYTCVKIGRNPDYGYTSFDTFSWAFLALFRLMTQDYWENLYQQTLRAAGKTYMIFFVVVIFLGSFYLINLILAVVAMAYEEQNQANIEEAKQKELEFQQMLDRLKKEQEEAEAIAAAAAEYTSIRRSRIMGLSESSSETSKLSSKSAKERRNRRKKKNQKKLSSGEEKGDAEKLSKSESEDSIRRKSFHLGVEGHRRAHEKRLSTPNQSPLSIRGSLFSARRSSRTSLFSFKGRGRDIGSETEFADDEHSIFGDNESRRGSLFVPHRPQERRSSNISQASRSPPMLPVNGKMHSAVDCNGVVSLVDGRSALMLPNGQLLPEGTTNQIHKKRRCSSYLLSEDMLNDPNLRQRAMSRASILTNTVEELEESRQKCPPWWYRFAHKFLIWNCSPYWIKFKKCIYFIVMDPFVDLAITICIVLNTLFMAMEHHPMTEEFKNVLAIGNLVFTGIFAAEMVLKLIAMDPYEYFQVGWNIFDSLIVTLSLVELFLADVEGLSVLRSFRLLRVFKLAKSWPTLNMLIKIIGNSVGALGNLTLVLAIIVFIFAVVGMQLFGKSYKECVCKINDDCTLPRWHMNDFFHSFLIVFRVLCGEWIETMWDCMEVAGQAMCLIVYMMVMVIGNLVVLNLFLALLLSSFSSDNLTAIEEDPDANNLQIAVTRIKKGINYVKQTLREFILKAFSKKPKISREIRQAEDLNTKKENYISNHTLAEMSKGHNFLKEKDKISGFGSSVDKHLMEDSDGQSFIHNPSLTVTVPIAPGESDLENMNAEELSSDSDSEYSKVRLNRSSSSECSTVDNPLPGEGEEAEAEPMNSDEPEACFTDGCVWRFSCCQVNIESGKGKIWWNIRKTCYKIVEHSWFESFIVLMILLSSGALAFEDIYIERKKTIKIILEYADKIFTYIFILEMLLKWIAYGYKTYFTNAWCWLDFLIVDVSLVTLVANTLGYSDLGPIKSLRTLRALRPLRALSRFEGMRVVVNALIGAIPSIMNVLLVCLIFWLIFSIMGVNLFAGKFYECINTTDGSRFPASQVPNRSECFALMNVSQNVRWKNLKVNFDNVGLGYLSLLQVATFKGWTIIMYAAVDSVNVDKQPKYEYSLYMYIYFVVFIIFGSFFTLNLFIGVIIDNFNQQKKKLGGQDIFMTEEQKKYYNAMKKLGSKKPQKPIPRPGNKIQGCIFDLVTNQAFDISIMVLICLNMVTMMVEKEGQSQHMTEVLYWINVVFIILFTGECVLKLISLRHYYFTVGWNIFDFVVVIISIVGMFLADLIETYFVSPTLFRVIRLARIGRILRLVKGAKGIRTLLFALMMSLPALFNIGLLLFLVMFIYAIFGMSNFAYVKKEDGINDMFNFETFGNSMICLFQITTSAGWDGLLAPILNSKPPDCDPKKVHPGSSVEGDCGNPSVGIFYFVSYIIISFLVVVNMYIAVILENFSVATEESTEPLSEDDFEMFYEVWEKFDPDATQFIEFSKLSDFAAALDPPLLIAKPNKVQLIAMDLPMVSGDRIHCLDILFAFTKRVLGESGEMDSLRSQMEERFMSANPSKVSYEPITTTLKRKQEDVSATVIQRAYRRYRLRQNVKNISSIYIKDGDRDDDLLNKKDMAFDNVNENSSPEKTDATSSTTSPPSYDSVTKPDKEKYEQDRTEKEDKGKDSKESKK

At human Nav1.7, `CC[C@H](C)[C@H](NC(=O)[C@H](CCCNC(=N)N)NC(=O)[C@H](CCCCN)NC(=O)[C@@H]1CSSC[C@@H]2NC(=O)[C@H](CCCCN)NC(=O)[C@H](CCCNC(=N)N)NC(=O)[C@H](CCC(=O)O)NC(=O)[C@H](CCC(=O)O)NC(=O)[C@H](CC(=O)O)NC(=O)[C@@H]3CSSC[C@H](NC(=O)[C@H](C(C)C)NC(=O)[C@H](CC(C)C)NC(=O)CNC(=O)[C@H](CCC(=O)O)NC(=O)[C@H](CSSC[C@H](NC(=O)[C@@H](N)Cc4ccc(O)cc4)C(=O)N[C@@H](CCC(N)=O)C(=O)N[C@@H](CCCCN)C(=O)N[C@@H](Cc4c[nH]c5ccccc45)C(=O)N[C@@H](CCSC)C(=O)N[C@@H](Cc4c[nH]c5ccccc45)C(=O)N[C@@H]([C@@H](C)O)C(=O)N3)NC2=O)C(=O)N[C@@H](CCCNC(=N)N)C(=O)N[C@@H](CC(C)C)C(=O)N[C@@H](Cc2c[nH]c3ccccc23)C(=O)N1)C(=O)N[C@H](C(=O)N[C@@H](CC(N)=O)C(=O)N[C@@H](CCSC)C(=O)O)[C@@H](C)CC` [GsMTx II/PaTX II, reference compound] (H-YCQKWMWTCDEERKCCEGLVCRLWCKRIINM-OH; disulfide 2-16, 9-21, 15-25) gave an IC50 of 260 nM.

`CC[C@H](C)[C@H](NC(=O)[C@](C)(CC(C)C)NC(=O)[C@H](CCCCN)NC(=O)[C@H](CCCCN)NC(=O)[C@H](CCCCN)NC(=O)[C@@H]1CSSC[C@@H]2NC(=O)[C@H](CCCCN)NC(=O)[C@H](CCCNC(=N)N)NC(=O)[C@H](C)NC(=O)[C@H](CO)NC(=O)[C@H](CC(=O)O)NC(=O)[C@@H]3CSSC[C@H](NC(=O)[C@H](C(C)C)NC(=O)[C@H](CC(C)C)NC(=O)CNC(=O)[C@H](CCC(=O)O)NC(=O)[C@H](CSSC[C@H](NC(=O)[C@@H](N)Cc4ccc(O)cc4)C(=O)N[C@@H](CCC(N)=O)C(=O)N[C@@H](CCCCN)C(=O)N[C@@H](Cc4c[nH]c5ccccc45)C(=O)N[C@@H](CCSC)C(=O)N[C@@H](Cc4c[nH]c5ccccc45)C(=O)N[C@@H]([C@@H](C)O)C(=O)N3)NC2=O)C(=O)N[C@@H](CCCNC(=N)N)C(=O)N[C@@H](CC(C)C)C(=O)N[C@@H](Cc2c[nH]c3ccccc23)C(=O)N1)C(=O)O` [compound 11] (H-YCQKWMWTCDSARKCCEGLVCRLWCKKK[αMeL]I-OH; disulfide 2-16, 9-21, 15-25): the IC50 was determined as 342 ± 73 nM in the assay with Nav1.2 (rBIIa) and 10 ± 1 nM on human Nav1.7.

For the compound `CSCC[C@@H]1NC(=O)CNC(=O)[C@H](CCC(=O)O)NC(=O)[C@@H]2CSSC[C@H](NC(=O)[C@@H](N)Cc3ccc(O)cc3)C(=O)N[C@@H](CCC(N)=O)C(=O)N[C@@H](CCCCN)C(=O)N[C@@H](Cc3c[nH]c4ccccc34)C(=O)N[C@@H](CCSC)C(=O)N[C@@H](Cc3c[nH]c4ccccc34)C(=O)N[C@@H]([C@@H](C)O)C(=O)N[C@H]3CSSC[C@H](NC(=O)[C@H](C(C)C)NC1=O)C(=O)N[C@@H](CCCNC(=N)N)C(=O)N[C@@H](CC(C)C)C(=O)N[C@@H](Cc1c[nH]c4ccccc14)C(=O)N[C@H](C(=O)N[C@@H](CCCCN)C(=O)N[C@@H](CCCCN)C(=O)N[C@@H](CCCCN)C(=O)N[C@@H](CC(C)C)C(=O)N[C@@H](Cc1c[nH]c4ccccc14)C(=O)O)CSSC[C@H](NC(=O)[C@H](CCCCN)NC(=O)[C@H](CCCNC(=N)N)NC(=O)[C@H](C)NC(=O)[C@H](CO)NC(=O)[C@H](CC(=O)O)NC3=O)C(=O)N2` [compound 3], the half-maximal inhibitory concentration (IC50) in the assay with Nav1.2 (rBIIa) stood at 8 ± 2 nM; on human Nav1.7, 0.2 ± 0.03 nM.

Regarding `CSCC[C@@H]1NC(=O)[C@H](Cc2c[nH]c3ccccc23)NC(=O)[C@H](CCCCN)NC(=O)[C@H](CCC(N)=O)NC(=O)[C@@H](NC(=O)[C@@H](N)Cc2ccc(O)cc2)CSSC[C@@H]2NC(=O)[C@@H]3CSSC[C@@H](C(=O)N[C@@H](CCCCN)C(=O)N[C@@H](CCCCN)C(=O)N[C@@H](CCCCN)C(=O)N[C@@H](CC(C)C)C(=O)N[C@@H](Cc4c[nH]c5ccccc45)C(=O)O)NC(=O)[C@H](Cc4c[nH]c5ccccc45)NC(=O)[C@H](CC(C)C)NC(=O)[C@H](CCCNC(=N)N)NC(=O)[C@H](CSSC[C@H](NC(=O)[C@H]([C@@H](C)O)NC(=O)[C@H](Cc4c[nH]c5ccccc45)NC1=O)C(=O)N[C@@H](CC(=O)O)C(=O)N[C@@H](CO)C(=O)N[C@@H](CCC(=O)O)C(=O)N[C@@H](CCCNC(=N)N)C(=O)N[C@@H](CCCCN)C(=O)N3)NC(=O)[C@H](C(C)C)NC(=O)[C@H](CC(C)C)NC(=O)CNC(=O)[C@H](CCC(=O)O)NC2=O` [compound 4], the IC50 with Nav1.2 (rBIIa) turned out to be 44.7 ± 15 nM; on human Nav1.7 it was 1.7 ± 0.1 nM.

For `CSCC[C@@H]1NC(=O)[C@H](Cc2c[nH]c3ccccc23)NC(=O)[C@H](CCCCN)NC(=O)[C@H](CCC(N)=O)NC(=O)[C@@H](NC(=O)[C@@H](N)Cc2ccc(O)cc2)CSSC[C@@H]2NC(=O)[C@@H]3CSSC[C@@H](C(=O)N[C@@H](CCCCN)C(=O)N[C@@H](CCCCN)C(=O)N[C@@H](CCCCN)C(=O)N(C)[C@@H](CC(C)C)C(=O)N[C@@H](Cc4c[nH]c5ccccc45)C(=O)O)NC(=O)[C@H](Cc4c[nH]c5ccccc45)NC(=O)[C@H](CC(C)C)NC(=O)[C@H](CCCNC(=N)N)NC(=O)[C@H](CSSC[C@H](NC(=O)[C@H]([C@@H](C)O)NC(=O)[C@H](Cc4c[nH]c5ccccc45)NC1=O)C(=O)N[C@@H](CC(=O)O)C(=O)N[C@@H](CO)C(=O)N[C@@H](C)C(=O)N[C@@H](CCCNC(=N)N)C(=O)N[C@@H](CCCCN)C(=O)N3)NC(=O)[C@H](C(C)C)NC(=O)[C@H](CC(C)C)NC(=O)CNC(=O)[C@H](CCC(=O)O)NC2=O` [compound 8] (H-YCQKWMWTCDSARKCCEGLVCRLWCKKK[NMeL]W-OH; disulfide 2-16, 9-21, 15-25), the IC50 was 51 ± 10 nM with Nav1.2 (rBIIa) and 18 nM on human Nav1.7.

For the compound `CSCC[C@@H]1NC(=O)[C@H](Cc2c[nH]c3ccccc23)NC(=O)[C@H](CCCCN)NC(=O)[C@H](CCC(N)=O)NC(=O)[C@@H](NC(=O)[C@@H](N)Cc2ccc(O)cc2)CSSC[C@@H]2NC(=O)[C@@H]3CSSC[C@@H](C(=O)N[C@@H](CCCCN)C(=O)N[C@@H](CCCCN)C(=O)N[C@@H](CCCCN)C(=O)N[C@@H](CC(C)C)C(=O)N[C@@H](Cc4c[nH]c5ccccc45)C(=O)O)NC(=O)[C@H](Cc4c[nH]c5ccccc45)NC(=O)[C@H](CC(C)C)NC(=O)[C@H](CCCNC(=N)N)NC(=O)[C@H](CSSC[C@H](NC(=O)[C@H]([C@@H](C)O)NC(=O)[C@H](Cc4c[nH]c5ccccc45)NC1=O)C(=O)N[C@@H](CC(=O)O)C(=O)N[C@@H](CO)C(=O)N[C@@H](C)C(=O)N[C@@H](CCCNC(=N)N)C(=O)N[C@@H](CCCCN)C(=O)N3)NC(=O)[C@H](C(C)C)NC(=O)[C@H](CC(C)C)NC(=O)CNC(=O)[C@H](CCC(=O)O)NC2=O` [compound 6] (H-YCQKWMWTCDSARKCCEGLVCRLWCKKKLW-OH; disulfide 2-16, 9-21, 15-25), the figures for the IC50 in the assay on Nav1.2 (rBIIa) and on human Nav1.7 were 24 ± 10 nM and 1 nM, respectively.

For the compound `CC[C@H](C)[C@H](NC(=O)[C@H](CCCCN)NC(=O)[C@H](CCCCN)NC(=O)[C@@H]1CSSC[C@@H]2NC(=O)[C@H](CCCCN)NC(=O)[C@H](CCCNC(=N)N)NC(=O)[C@H](C)NC(=O)[C@H](CO)NC(=O)[C@H](CC(=O)O)NC(=O)[C@@H]3CSSC[C@H](NC(=O)[C@H](C(C)C)NC(=O)[C@H](CC(C)C)NC(=O)CNC(=O)[C@H](CCC(=O)O)NC(=O)[C@H](CSSC[C@H](NC(=O)[C@@H](N)Cc4ccc(O)cc4)C(=O)N[C@@H](CCC(N)=O)C(=O)N[C@@H](CCCCN)C(=O)N[C@@H](Cc4c[nH]c5ccccc45)C(=O)N[C@@H](CCSC)C(=O)N[C@@H](Cc4c[nH]c5ccccc45)C(=O)N[C@@H]([C@@H](C)O)C(=O)N3)NC2=O)C(=O)N[C@@H](CCCNC(=N)N)C(=O)N[C@@H](CC(C)C)C(=O)N[C@@H](Cc2c[nH]c3ccccc23)C(=O)N1)C(=O)N[C@@H](CC(C)C)C(=O)N[C@@H](Cc1c[nH]c2ccccc12)C(=O)O` [compound 13] (H-YCQKWMWTCDSARKCCEGLVCRLWCKKILW-OH; disulfide 2-16, 9-21, 15-25), the IC50 in the assay on Nav1.2 (rBIIa) was found to be 50 ± 10 nM; against human Nav1.7, 3 nM.

On to `CC[C@H](C)[C@H](NC(=O)[C@H](CCCCN)NC(=O)[C@H](CCCCN)NC(=O)[C@H](CCCCN)NC(=O)[C@@H]1CSSC[C@@H]2NC(=O)[C@H](CCCCN)NC(=O)[C@H](CCCNC(=N)N)NC(=O)[C@H](C)NC(=O)[C@H](CO)NC(=O)[C@H](CC(=O)O)NC(=O)[C@@H]3CSSC[C@H](NC(=O)[C@H](C(C)C)NC(=O)[C@H](CC(C)C)NC(=O)CNC(=O)[C@H](CCC(=O)O)NC(=O)[C@H](CSSC[C@H](NC(=O)[C@@H](N)Cc4ccc(O)cc4)C(=O)N[C@@H](CCC(N)=O)C(=O)N[C@@H](CCCCN)C(=O)N[C@@H](Cc4c[nH]c5ccccc45)C(=O)N[C@@H](CCSC)C(=O)N[C@@H](Cc4c[nH]c5ccccc45)C(=O)N[C@@H]([C@@H](C)O)C(=O)N3)NC2=O)C(=O)N[C@@H](CCCNC(=N)N)C(=O)N[C@@H](CC(C)C)C(=O)N[C@@H](Cc2c[nH]c3ccccc23)C(=O)N1)C(=O)N[C@@H](CC(C)C)C(=O)N[C@@H](Cc1c[nH]c2ccccc12)C(=O)O` [compound 9] (H-YCQKWMWTCDSARKCCEGLVCRLWCKKKILW-OH; disulfide 2-16, 9-21, 15-25), for which the IC50 worked out at 33 nM with Nav1.2 (rBIIa) and 1 nM against human Nav1.7.

On to `CC[C@H](C)[C@H](NC(=O)[C@@H](NC(=O)[C@H](CCCCN)NC(=O)[C@H](CCCCN)NC(=O)[C@@H]1CSSC[C@@H]2NC(=O)[C@H](CCCCN)NC(=O)[C@H](CCCNC(=N)N)NC(=O)[C@H](CCC(=O)O)NC(=O)[C@H](CO)NC(=O)[C@H](CC(=O)O)NC(=O)[C@@H]3CSSC[C@H](NC(=O)[C@H](C(C)C)NC(=O)[C@H](CCSC)NC(=O)CNC(=O)[C@H](CCC(=O)O)NC(=O)[C@H](CSSC[C@H](NC(=O)[C@@H](N)Cc4ccc(O)cc4)C(=O)N[C@@H](CCC(N)=O)C(=O)N[C@@H](CCCCN)C(=O)N[C@@H](Cc4c[nH]c5ccccc45)C(=O)N[C@@H](CCSC)C(=O)N[C@@H](Cc4c[nH]c5ccccc45)C(=O)N[C@@H]([C@@H](C)O)C(=O)N3)NC2=O)C(=O)N[C@@H](CCCNC(=N)N)C(=O)N[C@@H](CC(C)C)C(=O)N[C@@H](Cc2c[nH]c3ccccc23)C(=O)N1)[C@@H](C)CC)C(=O)O` [compound 5], for which the values for the IC50 in the assay with Nav1.2 (rBIIa) and at human Nav1.7 were 919 ± 130 nM and 552 ± 90 nM, respectively.

One may read the IC50 as the midpoint of a concentration-inhibition curve.

For the origin of these results see US9279003B2, “Analogs of sodium channel peptide toxin” (priority 2010, dated 2016).
